≈ marks a conversion by molar mass, not a printed value. Where “and” joins values, the source holds several entries; their conditions need not be identical. Equal values may be shown once. Read-outs that look alike come from different tables or passages of the source. Where a SMILES comes first, the peptide text is derived from it. Bridges are numbered along the chain shown (N, C = ends).
Key:
[1] = system: E. tarda; format: cell-based, Edwardsiella tarda
Protocol: (§1) All tests were conducted in triplicate.

[2] = system: E. tarda; assay: Time-kill curves; format: cell-based, Edwardsiella tarda; settings: 10^5 CFU/mL, 28 °C, 200 rpm, plate count every 2 h
Protocol: Time–kill curves for N6 and N6NH2 were determined against E. tarda. In brief, the mid-log phase bacterial cells (10^5 CFU/mL) were mixed with different concentrations of peptides (1 × and 2 × and 4 × MIC) and cultured at 28 °C (200 rpm). Samples of 100 μL were taken from the mixture at intervals of 2 h, continuously diluted, and counted on the plate.

[3] = system: E. tarda; assay: Thermal stability (residual antibacterial activity, inhibition zone); format: physicochemical, Edwardsiella tarda; settings: incubated 1 h at 100 °C; N6 128 μg/mL; inhibition zone method vs untreated peptide; triplicate
Protocol: (§2) To evaluate the thermal stability of peptides, N6 and N6NH2 were incubated for 1 h at 4, 20, 40, 60, 80 and 100 °C. To measure the pH stability, peptides were incubated for 3 h in 100 mM glycine-HCl buffer (pH 2.0), sodium acetate buffer (pH 4.0), sodium phosphate buffer (pH 6.0), Tris-HCl buffer (pH 8.0) or glycine-NaOH buffer (pH 10.0). In addition, peptides were incubated for 4 h at 37 °C in pepsin (3,000 U/mg, pH 2.0) and trypsin (250 U/mg, pH 8.0) (10:1, w/w) solutions, respectively. […] After treatment, 30 μL of solutions were taken out to determine the antibacterial activity of peptides against E. tarda by the inhibition zone method. The untreated peptides were used as the control. All tests were conducted in triplicate.

[4] = system: E. tarda; assay: pH stability (residual antibacterial activity, inhibition zone); format: physicochemical, Edwardsiella tarda; settings: pH values of 2–10, 3 h incubation; N6 128 μg/mL, norfloxacin 10 μg/mL; inhibition zone method vs E. tarda
Protocol: as §2

[5] = system: E. tarda genomic DNA; assay: Gel migration (DNA binding) assay; design: species or system Edwardsiella tarda; settings: 0.25 μg DNA, 10 min at room temperature, 0.7% agarose gel; mass ratios 0–10 tested
Protocol: The genomic DNA of E. tarda or O. niloticus was incubated for 10 min at room temperature with different concentrations of N6 and N6NH2 in binding buffer (5% glycerol, 10 mM Tris-HCl, pH 8.0, 20 mM KCl, 1 mM EDTA, 1 mM dithiothreitol and […] BSA). The mass ratios of peptides and DNA were 0, 0.5, 1, 2, 4, 6, 8, and 10, respectively. The migration of DNA was evaluated by electrophoresis on a 0.7% agarose gel.

[6] = system: E. tarda cells; assay: TEM ultrastructure; format: cell-based, Edwardsiella tarda; settings: 4 × MIC for 2 h, 1 × 10^8 CFU/mL
Protocol: Mid-log phase E. tarda cells (1 × 10^8 CFU/mL) were incubated with 4 × MIC N6 or N6NH2 for 2 h at 37 °C. The bacterial cells were then centrifuged, washed three times with 0.1 M PBS (pH 7.2) and fixed overnight at 4 °C with 2.5% glutaraldehyde. After washing twice with PBS, the cells were post-fixed with 1% osmium tetroxide (OsO4) for 2 h, dehydrated in a graded ethanol series (from 50% to 100%) for 15 min each time and dried by CO2. The cell samples were sputtered with gold-palladium and observed on a QUANTA200 electron microscopy (FEI, Philips, The Netherlands).
The bacterial cells were treated with peptides as described above, fixed with 2.5% glutaraldehyde at 4 °C overnight and post-fixed with 1% OsO4 for 1 h. After washing three times with PBS, the cells were dehydrated with a graded acetone series (50%, 70%, 85%, 95% and 100%, for 7 min each time) and immersed in mixtures of acetone and resin (3:1, 1:1 and 1:3, 40 min each time). The samples were infiltrated with a pure epoxy resin overnight, embedded in capsules containing embedding medium and polymerized at 45 °C for 3 h and at 65 °C for 24 h, respectively. Thin sections were cut using an ultramicrotome, stained with 1% uranyl acetate and examined by a JEM1400 (JEDL, Tokyo, Japan).

[7] = system: Escherichia coli, S. typhimurium, S. enteritidis and S. pullorum; assay: organism not typed; format: cell-based
Protocol: as §1

[8] = system: Aeromonas veronii
[9] = system: Escherichia coli CVCC195
[10] = system: E. coli CVCC1515
[11] = system: E. coli CVCC25922
[12] = system: E. coli CVCCO157; settings: broth microdilution, MHB, 1 × 10^5 CFU/mL, 37 °C 18–24 h, n = 3; some N6 data from ref 19
[13] = system: Salmonella typhimurium CVCC533
[14] = system: S. typhimurium ATCC14028
[15] = system: S. enteritidis CVCC3377
[16] = system: S. pullorum CVCC1789
[17] = system: Pseudomonas aeruginosa CICC21630
[18] = system: Staphylococcus aureus ATCC43300
[19] = system: S. aureus ATCC25923
[20] = system: S. hyicus 437-2
[21] = system: S. hyicus 15095
[22] = broth microdilution, MHB, 1 × 10^5 CFU/mL, 37 °C 18–24 h, n = 3, some N6 data from ref 19

CC(C)[C@@H]1NC(=O)CNC(=O)[C@H](CC(N)=O)NC(=O)[C@H](CCCNC(=N)N)NC(=O)[C@H](Cc2ccc(O)cc2)NC(=O)[C@H](C(C)C)NC(=O)[C@@H](NC(=O)[C@@H](NC(=O)[C@H](CC(N)=O)NC(=O)[C@H](Cc2c[nH]c3ccccc23)NC(=O)[C@H](C)NC(=O)[C@H](Cc2ccccc2)NC(=O)CN)C(C)C)CSSC[C@@H](C(=O)N[C@@H](Cc2c[nH]cn2)C(=O)N[C@@H](CCCNC(=N)N)C(=O)N[C@@H](CCCNC(=N)N)C(=O)N[C@@H](C)C(=O)N[C@@H](CC(N)=O)C(=O)O)NC(=O)[C@H](C(C)C)NC(=O)[C@H](CCCNC(=N)N)NC1=O [Peptide N6] (H-GFAWNVCVYRNGVRVCHRRAN-OH; disulfide 7-16; N-terminus assumed)
MBC [1]: 12.8 µg/mL (≈ 5.17 µM) | time at which bacteria were killed (time-kill curve) ([2]; 2 × MIC): ≤ 2 h | time at which bacteria were killed (time-kill curve) ([2]; 4 × MIC): ≤ 2 h | decrease of antimicrobial activity against E. tarda after heating [3]: 6.7% | antibacterial activity at different pH values [4]: strong antibacterial activity | mass ratio of peptide and DNA at which migration of E. tarda genome DNA is inhibited [5]: greater than 1 | abnormal cells (TEM) [6]: over 95% | MIC [7]: 0.25 to 4 µg/mL | MIC [8]: 2.58 µM | MIC [8, 22]: 6.4 µg/mL | MIC ([9]; CVCC195): 0.2 µM | MIC [9, 22]: 0.5 µg/mL | MIC ([10]; CVCC1515): 0.4 µM | MIC [10, 22]: 1 µg/mL | MIC ([11]; CVCC25922): 0.1 µM | MIC [11, 22]: 0.25 µg/mL | MIC [12]: 0.5 μg/mL and 0.2 μM | MIC [13, 22]: 1 µg/mL | MIC ([13]; murium CVCC533): 0.4 µM | MIC ([14]; ATCC14028): 0.8 µM | MIC [14, 22]: 2 µg/mL | MIC ([15]; CVCC3377): 0.1 µM | MIC [15, 22]: 0.25 µg/mL | MIC ([16]; CVCC1789): 0.2 µM | MIC [16, 22]: 0.5 µg/mL | MIC ([17]; CICC21630): 1.6 µM | MIC [17, 22]: 4 µg/mL | MIC ([18]; ATCC43300): 6.46 µM | MIC [18, 22]: 16 µg/mL | MIC ([19]; ATCC25923): 0.1 µM | MIC [19, 22]: 0.25 µg/mL | MIC [20]: 25.8 µM | MIC [20, 22]: 64 µg/mL | MIC [21]: 6.46 µM | MIC [21, 22]: 16 µg/mL
